{"source": "patent EP1283052A1", "about": "“Pharmaceutical composition containing caspase-8 and /or caspase-9 useful for overcoming glucocorticoid- and cancer therapy-induced apoptosis of tumours” (Deutsches Krebsforschungszentrum Stiftung des öffentlichen …, priority 2001, dated 2003)", "key": {"caspase-9": {"test_system": "caspase-9", "assay": "RT-PCR for caspase-9 mRNA expression in P5 cells", "assay_type": "cell-based, human", "settings": "cisplatin 2 µg/ml, 6 and 24 h, Fig. 4a", "protocol": "(§1) P5 cells either untreated (CO) or stimulated with cisplatin (CIS, 2 µg/ml) were incubated in the absence or presence of DEX (1 µM). • (a) 6 and 24 h later RNA was extracted and assayed by RT-PCR for expression of caspase-9. Expression of the GAPDH gene served as control for equal conditions. • (b) 24 h after stimulation expression of caspase-9 proteins was examined by immunofluorescence staining using a rabbit polyclonal caspase-9 antibody and a FITC-coupled secondary antibody. Staining with the secondary antibody alone served as control for unspecific binding. • (c) 48 and 72 h after treatment whole cell proteins were extracted and analysed for expression of caspase-9 and caspase-3. The protein sizes in kDa are indicated on the right. […]\n(§2) • (A) Cell culture. […] The mice were given 0.28 mg/L DEX in drinking water, and the amount of water consumed was monitored. […] The tumour volumes were measured using callipers, and calculated using, as an approximation, the formula for volume of a hemi-ellipsoid: π(width^2 x length)/6. […] Early apoptotic changes were identified by staining of cells with fluoresceinthiocyanate (FITC)-conjugated annexin V and propidium iodide (Becton Dickinson, Heidelberg, Germany) and analysed by flow cytometry (FACScan, Becton Dickinson) as described (Herr et al., EMBO J. 16 (1997), 6200-6208) • (E) Immunohistochemistry. […]"}, "[1]": {"test_system": "P693 lung carcinoma xenografts", "assay": "P693 lung carcinoma xenografts in nude mice, tumour volume", "assay_type": "in vivo", "settings": "cisplatin 5mg/kg/week intraperitoneally for five weeks, absence of DEX; Fig. 1a", "protocol": "• (a) Human epidermoid lung cancer cells (P693) were injected into nude mice. At a tumour volume of 500 mm^3 weekly treatment with cisplatin (5mg/kg/week) was started. Cisplatin was injected intraperitoneally in the absence (CIS) or presence (DEX/CIS) of DEX which was added to the drinking water (0.28 mg/L) for the duration of the experiment. […] As controls, tumor growth of xenografts from mice which received neither cisplatin nor DEX (CO) or from mice which received DEX only (DEX) was determined. The tumour volume in each animal was measured at weekly intervals for a period of 5 weeks. Data are presented as the means +/- SD of 6 to 8 animals. • (b) The human cervical carcinoma cell lines HeLa and P5 were γ-irradiated (10 Gy) or treated with cisplatin (2 µg/ml) in the absence (white bars) or presence (black bars) of DEX (1 µM). The percentage of apoptosis was measured in untreated (CO) and stimulated cells by annexin-staining and FACS-analysis at the time points indicated. (c) P5, P693 and human leukemic T cells (CEM) cells were treated with cisplatin (2 µg/ml) in the absence or presence of DEX as indicated. 24 and 48 h following treatment cells were lysed and caspase-3 activity was determined by a fluorescent caspase-3 assay and spectroscopy."}, "caspase-9 and caspase-3": {"test_system": "caspase-9 and caspase-3", "assay": "Caspase-9 and caspase-3 protein expression in P5 cells (immunofluorescence, Western blot)", "assay_type": "cell-based, human", "settings": "Fig. 4c", "protocol": "as §1, §2"}}}
{"smiles": "N.N.[Cl][Pt][Cl]", "note": "[cisplatin]", "values": [{"measurement": "caspase-9 mRNA expression", "setting": "caspase-9", "result": "strongly enhanced"}, {"measurement": "tumour growth", "setting": "[1]", "result": "profound reduction of tumour growth"}, {"measurement": "protein levels of procaspase-9", "setting": "caspase-9 and caspase-3; Western blot at 48 and 72 h", "result": "reduced the protein levels of procaspase-9"}, {"measurement": "procaspase-3 cleavage", "setting": "caspase-9 and caspase-3; cisplatin alone, 48 and 72 h", "result": "cleaved 48 and 72 h following cisplatin"}]}
